Literature values as cited in patent US10196677B2, “Method for identification of sensitivity of a patient to telomerase inhibition therapy” (Geron Corporation, priority 2008, dated 2019).
Entries after “also recorded” stand apart in the source; their conditions may differ. [NPS] = N3'→P5' thiophosphoramidate linkage

Tests used:
[1] = system: cancer cells; conditions: cell culture, various cancer cell types
[2] = system: animal tumor models; conditions: animal tumor models / human cancer cells, local and systemic delivery

For “GRN163: oligonucleotide with sequence TAGGGTTAGACAA (SEQ ID NO:2) and N3′→P5′ thiophosphoramidate (NPS) linkages; hTR template inhibitor (all [NPS], sugars by position and methylation of C not given here)”, the “Inhibitory activity / growth inhibition of cancer cells in vitro” value [1] is listed as “has shown inhibitory activity in vitro in cell culture; also recorded: have shown inhibitory activity in vitro” and the “Activity against tumors in vivo” value [2] is listed as “therapeutically effective”.
